Measured values published in US20230285570A1, “THERAPEUTICALLY USEFUL CURE-PRO MOLECULES FOR E3 LIGASE MEDIATED DEGRADATION OF PROTEINS, AND METHODS OF MAKING AND USING THEM” (CORNELL UNIVERSITY, priority 2020, published 2023).
Entries after “also recorded” stand apart in the source; their conditions may differ.

Tests used:
Type in all cases: cell-based
BRD4 [1] = biological target: T1, BRD4 (Homo sapiens, UniProt O60885); assay: CURE-PRO-mediated BRD4 degradation in HCT116 cells, WES (ProteinSimple); parameters: endogenous in cells
BRD4 [2] = biological target: T1, BRD4; assay: Summary of BRD4 degradation by CURE-PRO pairs, estimated from Western Blot or WES; parameters: endogenous in cells
In short: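 Degradation read-out from immunoblot with ECL, or WES capillary electrophoresis with HRP detection, of RIPA lysates. Cells (Namalwa, Ramos, HeLa, MCF7, HT29 or HCT116) were exposed to DMSO-solubilized compounds for 24 h; a check mark marks 30% to 70% or higher degradation.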

BRD4 [3] = biological target: T1, BRD4; assay: CURE-PRO-mediated BRD4 degradation in HeLa cells, Western blot; parameters: endogenous in cells; host or cells: HeLa; conditions: 24 h
In short: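 HeLa cells (2.5×10^6) treated 24 h with DMSO-solubilized compounds, degrader pairs combined 1:1, at 1 nM-1 μM, 1-10 μM, 10 μM or 10 and 100 μM each depending on series. RIPA lysates (10-20 μg protein) run on SDS-PAGE and immunoblotted for BRD4 with ECL detection.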

BRD2 = biological target: T2, BRD2 (Homo sapiens, UniProt P25440); assay: BRD protein family degradation in HCT116 cells, Western blot: BRD2; conditions: 1:1 with MDM2 ligands 8310 and 8312 (each), HCT116, 24 h, 100 nM-10 μM
T2 construct: endogenous in cells; host or cells: HCT116
T2 sequence (P25440 whole entry): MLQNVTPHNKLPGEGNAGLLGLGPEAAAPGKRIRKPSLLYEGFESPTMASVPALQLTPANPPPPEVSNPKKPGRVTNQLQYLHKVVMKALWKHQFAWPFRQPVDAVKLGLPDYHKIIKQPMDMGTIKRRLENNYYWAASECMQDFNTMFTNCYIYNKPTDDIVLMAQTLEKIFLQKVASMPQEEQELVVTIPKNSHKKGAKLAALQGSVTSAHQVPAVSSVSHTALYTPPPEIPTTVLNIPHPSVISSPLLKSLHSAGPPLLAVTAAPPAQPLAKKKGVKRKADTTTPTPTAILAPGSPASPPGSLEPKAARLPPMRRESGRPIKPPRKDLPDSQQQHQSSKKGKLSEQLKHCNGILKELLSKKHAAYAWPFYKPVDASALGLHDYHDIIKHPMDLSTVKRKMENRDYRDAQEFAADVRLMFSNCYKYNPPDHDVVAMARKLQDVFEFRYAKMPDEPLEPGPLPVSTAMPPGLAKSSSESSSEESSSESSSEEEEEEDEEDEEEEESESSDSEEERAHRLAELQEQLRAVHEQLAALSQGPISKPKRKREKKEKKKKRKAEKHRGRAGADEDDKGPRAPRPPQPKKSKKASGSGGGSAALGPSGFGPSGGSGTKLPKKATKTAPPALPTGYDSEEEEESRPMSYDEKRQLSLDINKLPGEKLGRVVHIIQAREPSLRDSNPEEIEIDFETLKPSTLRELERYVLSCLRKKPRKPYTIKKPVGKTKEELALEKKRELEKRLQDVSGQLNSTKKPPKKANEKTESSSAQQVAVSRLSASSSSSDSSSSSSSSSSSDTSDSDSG
Experimental: Namalwa, Ramosm HeLa, MCF7, or HT29 HCT116 cells (2.5-3×10^6) were treated for 24 hours with the indicated compounds solubilized in DMSO. The cells were washed in ice-cold PBS and were then lysed in RIPA lysis buffer (150 mM NaCl, 5 mM EDTA, 1% NP-40, 0.5% sodium deoxycholate, 0.1% SDS, 50 mM Tris, pH 8.0.) with Roche protease inhibitor complete cocktail and phosphatase inhibitors (10 mM sodium fluoride, 10 mM sodium pyrophosphate, 1 mM sodium orthovanadate and 20 mM β-glycerophosphate). The total protein concentrations were determined by Bradford Protein Assay (Pierce) and 10-20 μg of protein was loaded onto 4-15% Tris-Glycine gradient gels (Biorad). After standard gel electrophoresis, the separated proteins were transferred to PVDF membrane by wet transfer. The immunoblots were then blocked for 1 hour in 5% skim milk in TBST or 5% BSA in TBST, according to manufacturer's instructions, before an overnight incubation at 4° C. with indicated antibodies and membranes. […] Signal was detected with ECL Western Blotting Substrate (Pierce) and X-ray film processed with a Konica SRX-101 X-ray film processor or captured by Bio-Rad's Chemidoc Imaging system. […]

Which BRD4 degradation (BRD4 [1]; 1:1 with MDM2 ligand 8313, HCT116, 24 h, 1 μM-10 μM each) does the source give for CCNC(=O)C[C@@H]1N=C(c2ccc(Cl)cc2)c2cc(OCCCCC(=O)Nc3cccc(B(O)O)c3)ccc2-n2c(C)nnc21 [BRD-E20, (3-(5-(((4S)-6-(4-chlorophenyl)-4-(2-(ethylamino)-2-oxoethyl)-1-methyl-4H-benzo[f][1,2,4]triazolo[4,3-a][1,4]diazepin-8-yl)oxy)pentanamido)phenyl)boronic acid] here?
Its BRD4 degradation is “had no effect on BRD4 protein levels”.

What about the BRD4 degradation (BRD4 [1]; 1:1 with MDM2 ligand 8314, HCT116, 24 h, 1 μM-10 μM each) of the same molecule?
The BRD4 degradation was “caused partial loss of the BRD4 protein; also recorded: Degradation is observed”.

What about the “Degradation of BRD4, combination with CRBN ligand 8046” value (BRD4 [2]; Table 1, aryl-boronic acid BRD4 ligand + 8046) of the same molecule?
Its value is “√ (A black check mark indicates efficacy of 30% to 70% or higher protein degradation)”.

What about the “Degradation of BRD4, combination with CRBN ligand 8066” value (BRD4 [2]; Table 1, aryl-boronic acid BRD4 ligand + 8066) of the same molecule?
Its value is “√ (A black check mark indicates efficacy of 30% to 70% or higher protein degradation)”.

And the “Degradation of BRD4, combination with MDM2 ligand 8313” value (BRD4 [2]; Table 2, aryl-boronic acid BRD4 ligand + 8313)?
The value was “√ (A black check mark indicates efficacy of 30% to 70% or higher protein degradation)”.

What about the “Degradation of BRD4, combination with MDM2 ligand 8314” value (BRD4 [2]; Table 2, aryl-boronic acid BRD4 ligand + 8314) of the same molecule?
Its value is “√ (A black check mark indicates efficacy of 30% to 70% or higher protein degradation)”.

What about the “Degradation of BRD4, combination with VHL ligand 8305” value (BRD4 [2]; Table 3, aryl-boronic acid BRD4 ligand + 8305) of the same molecule?
Its value is “√ (A black check mark indicates efficacy of 30% to 70% or higher protein degradation)”.

And the BRD4 degradation (BRD4 [3]; co-treated 1:1 with CRBN ligand 8046, HeLa, 10 μM each)?
Its BRD4 degradation is “causes degradation of BRD4; also recorded: Degradation is noted”.

What about the BRD4 degradation (BRD4 [3]; co-treated 1:1 with CRBN ligand 8066, HeLa, 10 μM each) of the same molecule?
The BRD4 degradation was “causes degradation of BRD4; also recorded: Degradation is noted”.

Which results are given for CCNC(=O)C[C@@H]1N=C(c2ccc(Cl)cc2)c2cc(OCCOCCNC(=O)c3cccc(O)c3O)ccc2-n2c(C)nnc21 [BRD-N39, N-(2-(2-(((4S)-6-(4-chlorophenyl)-4-(2-(ethylamino)-2-oxoethyl)-1-methyl-4H-benzo[f][1,2,4]triazolo[4,3-a][1,4]diazepin-8-yl)oxy)ethoxy)ethyl)-2,3-dihydroxybenzamide]?
BRD2 degradation (BRD2): BRD2 to a lesser extent; also recorded: Degradation is evident; BRD4 degradation (BRD4 [1]; 1:1 with MDM2 ligand 8310, HCT116, 24 h, 10 μM): caused BRD4 degradation; BRD4 degradation (BRD4 [1]; 1:1 with MDM2 ligand 8312, HCT116, 24 h, 10 μM): caused BRD4 degradation; Degradation of BRD4, combination with CRBN ligand 8048 (BRD4 [2]; Table 4, aromatic 1,2-diol BRD4 ligand + 8048): √ (A black check mark indicates efficacy of 30% to 70% or higher protein degradation); Degradation of BRD4, combination with MDM2 ligand 8310 (BRD4 [2]; Table 5, aromatic 1,2-diol BRD4 ligand + 8310): √ (A black check mark indicates efficacy of 30% to 70% or higher protein degradation); Degradation of BRD4, combination with MDM2 ligand 8312 (BRD4 [2]; Table 5, aromatic 1,2-diol BRD4 ligand + 8312): √ (A black check mark indicates efficacy of 30% to 70% or higher protein degradation); BRD4 degradation (BRD4 [3]; BRD4 monomer alone, HeLa, 1-10 μM): there is no degradation of BRD4; BRD4 degradation (BRD4 [3]; co-treated 1:1 with CRBN ligand 8048, HeLa, 1-10 μM each): causes degradation of BRD4; also recorded: Degradation is noted; BRD4 degradation (BRD4 [3]; co-treated 1:1 with CRBN ligand 8049, HeLa, 1-10 μM each): no evidence of BRD4 degradation
